Values quoted from earlier work, collected in US20260198506A1, “Broad-Spectrum Organic Fungicide & Bactericide” (Ecolution.AG LLC, priority 2020, published 2026).

Test system: Gram-positive bacteria
Conditions: due to outer cell membrane impermeability of Gram-negatives

For `O=C(O)C1=C[C@@H](O)[C@@H](O)[C@H](O)C1` [shikimic acid], the antibacterial activity spectrum is listed as “active only against Gram-positive bacteria”.
